In publication PMC1976805, “Preclinical pharmacokinetics of benznidazole” (British Journal of Cancer, 1984):
Several values for one entry are separate records, joined by “and”; a condition that tells them apart may be missing. Equal entries are not always repeated. Where two headings read alike, the source gives them in different places.

Tests used:
[1] = Whole plasma pharmacokinetics in sheep (HPLC); assay type: in vivo; conditions: for half-life: male, Clun Forest/Border Leicester cross, sheep, plasma, iv
From the text: Br. J. Cancer (1984), 50, 291-303 Preclinical pharmacokinetics of benznidazole P. Workman', R.A.S. White2, M.I. Walton', L.N. Owen2* & P.R. Twentyman' 1MRC Clinical Oncology and Radiotherapeutics Unit, MRC Centre, Hills Road, Cambridge CB2 2QH, and 2Department of Clinical Veterinary Medicine, University of Cambridge, Madingley Road, Cambridge CB3 OES, UK. […] We have investigated the detailed pharmacokinetics of benznidazole in mice, dogs and sheep to provide a data base for the estimation of doses required for chemosensitization in man. Pharmacokinetic behaviour was linear except at high doses in mice. Absorption was fairly rapid and bioavailability was complete following both i.p. administration in mice and oral administration in dogs. Elimination t4 values were longer than for MISO, being 90 min in mice, 4-5 h in sheep and 9-11 h in dogs. At doses giving linear kinetics, peak whole plasma concentrations per administered mgkg-1 were 0.75 jigml-1 for the i.p. route in mice and 1.8jugmlP' for the oral route in dogs. Though between 39 and 59% of plasma benznidazole was bound to protein, tissue penetration was generally good. Tissue/whole plasma ratios ranged from 59-99% for transplantable mouse tumours and from 14-70% for spontaneous dog neoplasms. Nervous tissue penetration was similar to that in tumours: brain/whole plasma ratios averaged between 61 and 76% in mice and 42% in dogs, while peripheral nerve/whole plasma ratios in dogs averaged 74%. Mean liver/whole plasma ratios were 42% and 71% in BALB/c and C3H/He mouse strains respectively. Only -5% of the administered dose was excreted unchanged in the urine, indicating the likelihood of extensive metabolism. […] Enhancement of CCNU response is likely to require circulating benznidazole concentrations of 10-30 pgml-1 and we predict that these will be obtained with oral doses of 6-20 mgkg- 1 in man. […] This enhancement, or chemosensitization, is usually greater than that seen in dose-limiting normal tissues, resulting in an improved therapeutic index. Because of the relatively high doses of MISO usually required for chemosensitization in mice (see above refs), and also because of its neurotoxicity in man (Dische et al., 1977), we have been interested in finding an improved chemosensitizer. […] The lipophilic ana- logue benznidazole (N-benzyl-(2-nitroimidazolyl) acetamide, Ro 07-1051; Radanil; Roche), the structure of which is shown in Figure 1, was selected for detailed study because of its ability to *Present address: Animal Health Trust, Small Animals Centre, Lanwades Park, Kennett, Newmarket, Suffolk CB8 7PN, UK. Correspondence: P. Workman. […] These findings have been confirmed independently by Siemann et al. (1983). Although benznidazole is used quite widely in South America to treat patients with the trypanosomal infection Chagas' disease or with mucotaneous Leishmaniasis (Barclay et al., 1978; Cerisola et al., 1978; Coura et al., 1978; Fava et al., 1978), apart from our preliminary studies (White et al., 1982) the only published data on its pharmaco- kinetics are for human plasma concentrations measured by polarography (Raaflub & Ziegler, 1979; Raaflub, 1980). Here we describe the pharmacokinetics of benznidazole in the mouse, sheep and dog, as determined by high-performance liquid chromatography (HPLC). […]

human plasma = conditions: cited from earlier work
[2] = cited from earlier work
bovine serum albumin = system: bovine serum albumin; set-up: method as in Clarke & Wardman, cited in Watts et al., 1980; conditions: ref Clarke & Wardman, cited in Watts et al., 1980; cited from earlier work
plasma proteins = experiment: Binding to plasma proteins in vitro, mouse plasma (ultrafiltrate); assay type: in vitro ADME
From the text: Br. J. Cancer (1984), 50, 291-303 Preclinical pharmacokinetics of benznidazole P. Workman', R.A.S. White2, M.I. Walton', L.N. Owen2* & P.R. Twentyman' 1MRC Clinical Oncology and Radiotherapeutics Unit, MRC Centre, Hills Road, Cambridge CB2 2QH, and 2Department of Clinical Veterinary Medicine, University of Cambridge, Madingley Road, Cambridge CB3 OES, UK. […] We have investigated the detailed pharmacokinetics of benznidazole in mice, dogs and sheep to provide a data base for the estimation of doses required for chemosensitization in man. Pharmacokinetic behaviour was linear except at high doses in mice. Absorption was fairly rapid and bioavailability was complete following both i.p. administration in mice and oral administration in dogs. Elimination t4 values were longer than for MISO, being 90 min in mice, 4-5 h in sheep and 9-11 h in dogs. At doses giving linear kinetics, peak whole plasma concentrations per administered mgkg-1 were 0.75 jigml-1 for the i.p. route in mice and 1.8jugmlP' for the oral route in dogs. Though between 39 and 59% of plasma benznidazole was bound to protein, tissue penetration was generally good. Tissue/whole plasma ratios ranged from 59-99% for transplantable mouse tumours and from 14-70% for spontaneous dog neoplasms. Nervous tissue penetration was similar to that in tumours: brain/whole plasma ratios averaged between 61 and 76% in mice and 42% in dogs, while peripheral nerve/whole plasma ratios in dogs averaged 74%. […] Although benznidazole is used quite widely in South America to treat patients with the trypanosomal infection Chagas' disease or with mucotaneous Leishmaniasis (Barclay et al., 1978; Cerisola et al., 1978; Coura et al., 1978; Fava et al., 1978), apart from our preliminary studies (White et al., 1982) the only published data on its pharmaco- kinetics are for human plasma concentrations measured by polarography (Raaflub & Ziegler, 1979; Raaflub, 1980). Here we describe the pharmacokinetics of benznidazole in the mouse, sheep and dog, as determined by high-performance liquid chromatography (HPLC). […]

[3] = Penetration into mouse liver; assay type: in vivo; conditions: for liver/whole plasma ratio, overall mean / liver concentration / whole plasma concentration / Kp at 0.5 h / Kp at 3 h / Kp at 6 h / Kp: 78 mg kg-1 i.p.; for liver/whole plasma ratio, overall mean / Kp: 0.5-6 h; for Kp at 0.5 h / Kp at 3 h / Kp at 6 h / Kp: mouse, ip; for Kp at 0.5 h / Kp at 3 h / Kp at 6 h: liver / whole plasma, read-out: liver/whole plasma ratio; for Kp: liver, read-out: liver/whole plasma ratio, overall mean
From the text: Br. J. Cancer (1984), 50, 291-303 Preclinical pharmacokinetics of benznidazole P. Workman', R.A.S. White2, M.I. Walton', L.N. Owen2* & P.R. Twentyman' 1MRC Clinical Oncology and Radiotherapeutics Unit, MRC Centre, Hills Road, Cambridge CB2 2QH, and 2Department of Clinical Veterinary Medicine, University of Cambridge, Madingley Road, Cambridge CB3 OES, UK. […] We have investigated the detailed pharmacokinetics of benznidazole in mice, dogs and sheep to provide a data base for the estimation of doses required for chemosensitization in man. Pharmacokinetic behaviour was linear except at high doses in mice. Absorption was fairly rapid and bioavailability was complete following both i.p. administration in mice and oral administration in dogs. Elimination t4 values were longer than for MISO, being 90 min in mice, 4-5 h in sheep and 9-11 h in dogs. At doses giving linear kinetics, peak whole plasma concentrations per administered mgkg-1 were 0.75 jigml-1 for the i.p. route in mice and 1.8jugmlP' for the oral route in dogs. Though between 39 and 59% of plasma benznidazole was bound to protein, tissue penetration was generally good. Tissue/whole plasma ratios ranged from 59-99% for transplantable mouse tumours and from 14-70% for spontaneous dog neoplasms. Nervous tissue penetration was similar to that in tumours: brain/whole plasma ratios averaged between 61 and 76% in mice and 42% in dogs, while peripheral nerve/whole plasma ratios in dogs averaged 74%. Mean liver/whole plasma ratios were 42% and 71% in BALB/c and C3H/He mouse strains respectively. Only -5% of the administered dose was excreted unchanged in the urine, indicating the likelihood of extensive metabolism. […] Enhancement of CCNU response is likely to require circulating benznidazole concentrations of 10-30 pgml-1 and we predict that these will be obtained with oral doses of 6-20 mgkg- 1 in man. […] This enhancement, or chemosensitization, is usually greater than that seen in dose-limiting normal tissues, resulting in an improved therapeutic index. Because of the relatively high doses of MISO usually required for chemosensitization in mice (see above refs), and also because of its neurotoxicity in man (Dische et al., 1977), we have been interested in finding an improved chemosensitizer. […] The lipophilic ana- logue benznidazole (N-benzyl-(2-nitroimidazolyl) acetamide, Ro 07-1051; Radanil; Roche), the structure of which is shown in Figure 1, was selected for detailed study because of its ability to *Present address: Animal Health Trust, Small Animals Centre, Lanwades Park, Kennett, Newmarket, Suffolk CB8 7PN, UK. Correspondence: P. Workman. […] These findings have been confirmed independently by Siemann et al. (1983). Although benznidazole is used quite widely in South America to treat patients with the trypanosomal infection Chagas' disease or with mucotaneous Leishmaniasis (Barclay et al., 1978; Cerisola et al., 1978; Coura et al., 1978; Fava et al., 1978), apart from our preliminary studies (White et al., 1982) the only published data on its pharmaco- kinetics are for human plasma concentrations measured by polarography (Raaflub & Ziegler, 1979; Raaflub, 1980). Here we describe the pharmacokinetics of benznidazole in the mouse, sheep and dog, as determined by high-performance liquid chromatography (HPLC). […] The Macmillan Press Ltd., 1984 292 P. WORKMAN et al. particularly on plasma and tumour concentrations, have been used as a basis for the estimation of the benznidazole doses required in a Phase I trial of benznidazole plus CCNU, at present ongoing in our Unit. Materials and methods Animals and tumours Adult inbred male BALB/c mice were obtained from OLAC (Southern) Ltd. (Bicester, UK) and adult inbred C3H/He mice of both sexes from OLAC and our own breeding colony. Mice were housed in plastic cages on sawdust bedding made from soft white woods, and allowed laboratory chow and water ad lib. They were used at 20-35 g body wt.

[4] = man, average daily dose 3.5 mg kg-1, literature

O=C(Cn1ccnc1[N+](=O)[O-])NCc1ccccc1 [benznidazole, N-benzyl-(2-nitroimidazolyl) acetamide]
half-life ([1]; 4 mg/kg, sheep 1, 4 mg kg-1 i.v., read-out: elimination t1/2 (95% confidence limits) (converted)): 5.2 h | half-life ([1]; 4 mg/kg, sheep 2, 4 mg kg-1 i.v., read-out: elimination t1/2 (95% confidence limits) (converted)): 3.8 h | half-life ([1]; summary value, read-out: elimination t1/2): 4 to 5 h | peak whole plasma concentration ([1]; sheep 1, 4 mg kg-1 i.v.): 3.6 µg/mL | peak whole plasma concentration ([1]; sheep 2, 4 mg kg-1 i.v.): 2.5 µg/mL | binding to plasma proteins (human plasma; ref Raaflub & Ziegler, 1979): 44% | binding to plasma proteins (human plasma; ref Workman & Brown, 1981): 58% | mean t1/2 ([2]; humans, low doses, polarographic analysis, ref Raaflub & Ziegler (1979) and Raaflub (1980)): 12 to 14 h | mean steady state maximum plasma concentration (s.e., n=6) [2, 4]: 12.4 ± 0.7 µg/mL | mean steady state minimum plasma concentration (s.e., n=6) [2, 4]: 8.3 ± 0.6 µg/mL | peak time ([2]; man, low oral doses, ref Raaflub & Ziegler, 1979): 3 to 4 h | mean peak plasma concentration per administered mg kg-1 (s.e., n=7) ([2]; man, oral, low doses (mean 1.73 mg kg-1), ref Raaflub & Ziegler, 1979): 1.48 + 0.06 µg ml-1 | binding (bovine serum albumin): 46% | extent of binding to plasma proteins in vitro (plasma proteins; BALB/c mice): 38% | extent of binding to plasma proteins in vitro (plasma proteins; C3H/He mice): 39% | binding to plasma proteins (plasma proteins; mouse, discussion summary): 39% | liver/whole plasma ratio, overall mean ([3]; BALB/c): 41.7% | liver concentration ([3]; BALB/c, 0.5 h): 20.8 µg/g | whole plasma concentration ([3]; BALB/c, 0.5 h): 45.3 µg/mL | liver concentration ([3]; BALB/c, 3.0 h): 10.3 µg/g | whole plasma concentration ([3]; BALB/c, 3.0 h): 29.8 µg/mL | liver concentration ([3]; BALB/c, 6.0 h): 8.2 µg/g | whole plasma concentration ([3]; BALB/c, 6.0 h): 12.2 µg/mL | liver/whole plasma ratio, overall mean ([3]; C3H/He, n=29): 70.6% and 71 + 8% | liver concentration ([3]; C3H/He, 0.5 h): 25.2 µg/g | whole plasma concentration ([3]; C3H/He, 0.5 h): 33.9 µg/mL | liver concentration ([3]; C3H/He, 3.0 h): 17.3 µg/g | whole plasma concentration ([3]; C3H/He, 3.0 h): 34.1 µg/mL | liver concentration ([3]; C3H/He, 6.0 h): 17.8 µg/g | whole plasma concentration ([3]; C3H/He, 6.0 h): 21.1 µg/mL | Kp at 0.5 h ([3]; both sexes, C3H/He, 78 mg kg-1, C3H/He, 0.5 h): 0.758 | Kp at 3 h ([3]; both sexes, C3H/He, 78 mg kg-1, C3H/He, 3.0 h): 0.533 | Kp at 6 h ([3]; both sexes, C3H/He, 78 mg kg-1, C3H/He, 6.0 h): 0.843 | Kp ([3]; both sexes, C3H/He, 78 mg kg-1, C3H/He, n=29): 0.71 | Kp at 0.5 h ([3]; male, BALB/c, 78 mg kg-1, BALB/c, 0.5 h): 0.466 | Kp at 3 h ([3]; male, BALB/c, 78 mg kg-1, BALB/c, 3.0 h): 0.348 | Kp at 6 h ([3]; male, BALB/c, 78 mg kg-1, BALB/c, 6.0 h): 0.439 | Kp ([3]; male, BALB/c, 78 mg kg-1, BALB/c): 0.42 | peak liver concentration that would be produced ([3]; mice, 13 mg kg-1 i.p.): ~7 µg/g | liver concentration ([3]; mice, discussion summary): 21 µg/g
